Source: patent publication US10513694B2, “Thienopyrrole compounds and uses thereof” (PROMEGA CORPORATION, priority 2015, dated 2019)
pIC50: −log10 of the molar value. Like-named read-outs stand apart in the source and are kept apart here.

How the values were obtained:
Nluc luciferase = Nluc luciferase (Oplophorus gracilirostris, UniProt Q9GV45, A31E/A60N/A81I/F95D/I117V/K70R/L54V/L99Q/M102K/N193R/P142E/Q151K/Q38R/Q45L/V71I/Y165I); assay: Inhibition of purified Nluc, dose and time dependence; format: biochemical; conditions: pro-substrate PBI-4442, DTT, TERGITOL, RT, various time points
Chain of Nluc luciferase (Q9GV45 28-196 with tags or gaps with the stated changes limits assumed): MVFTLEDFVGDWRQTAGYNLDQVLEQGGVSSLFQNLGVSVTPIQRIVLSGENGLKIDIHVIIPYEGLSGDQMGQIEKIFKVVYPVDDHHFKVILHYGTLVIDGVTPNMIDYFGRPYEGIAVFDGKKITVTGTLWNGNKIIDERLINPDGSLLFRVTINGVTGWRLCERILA
Experimental: A solution of purified Nluc and an Nluc pro-substrate (PBI-4442, which is described in US 2013/0130289), which is converted to an Nluc substrate upon reduction with DTT, were prepared in PBS buffer, pH 7.5. A 40 mM solution of DTT in PBS, pH 7.5 containing 1% TERGITOL was also prepared. Titrations of the thienopyrrole compounds JRW-0004, WZ141-88, WZ141-86, WZ141-74, WZ141-84, WZ141-89, WZ141-90, and WZ141-91 in the buffer containing DTT and TERGITOL were then prepared. An equal volume of the Nluc/pro-substrate solution was added to the thienopyrrole compound titrations in wells of an assay plate. The reactions were incubated at RT, and luminescence was measured at various time points on the Tecan M100 Pro plate reader (integration time 200 ms). IC50 values were determined using GraphPad Prism 6.03.

NANOLUC® enzyme = NANOLUC® enzyme (Oplophorus gracilirostris, UniProt Q9GV45, A31E/A60N/A81I/F95D/I117V/K70R/L54V/L99Q/M102K/N193R/P142E/Q151K/Q38R/Q45L/V71I/Y165I); assay: Inhibitor IC50 determination (NANOLUC enzyme, furimazine); format: biochemical; conditions: 0.4 ng/ml NANOLUC enzyme, final furimazine 10 uM (at Km); for IC50: IC50 (uM)
Chain of NANOLUC® enzyme (Q9GV45 28-196 with tags or gaps with the stated changes limits assumed): as above
Experimental: The following example provides the IC50 values for the compounds disclosed herein. See Table 5 NANOLUC® enzyme was diluted to 0.4 ng/ml in CO2 independent media+10% FBS to make the detection reagent. A 3× dilution series of each inhibitor was then made in the detection reagent. A “no inhibitor” control was also made for each sample. 50 ul of each inhibitor dilution was mixed with 50 ul of NanoGlo buffer containing 20 uM furimazine. (Final furimazine concentration is 10 uM which is at Km.), and luminescence measured. Each sample was normalized to the “no inhibitor” control. The […] values were then determined using GraphPad Prism (log [inhibitor] vs. normalized response).

Nluc = Nluc (Oplophorus gracilirostris, UniProt Q9GV45, A31E/A60N/A81I/F95D/I117V/K70R/L54V/L99Q/M102K/N193R/P142E/Q151K/Q38R/Q45L/V71I/Y165I); assay: Specificity of inhibition of Nluc luciferase: Nluc; format: biochemical
Chain of Nluc (Q9GV45 28-196 with tags or gaps with the stated changes limits assumed): as above

UltraGlo luciferase = assay: Specificity of inhibition of Nluc luciferase: UltraGlo luciferase; format: biochemical, firefly; conditions: RT 2 hrs
Experimental: The following example describes the specificity of disclosed thienopyrrole compounds, JRW-0251, JRW-0344, and JRW-0147, to inhibit Nluc luciferase activity versus firefly luciferase activity, e.g., ULTRAGLO® luciferase. In a Corning 3570 assay plate, a solution containing 1 μM luciferin in Luciferase Detection Reagent (Promega Corporation V865/859) was added to the assay wells. An equal volume of titrations the thienopyrrole compounds, JRW-0251, JRW-0344, and JRW-0147 were then added to the wells. The reactions were incubated at RT for 2 hrs, and luminescence was measured on Tecan M1000 Pro plate reader.

Compound: CCN(C(=O)Cn1c(C(=O)NCc2ccncc2)cc2sccc21)c1cccc(C)c1 [WZ-141-89, 4-(2-(ethyl(m-tolyl)amino)-2-oxoethyl)-N-(pyridin-4-ylmethyl)-4H-thieno[3,2-b]pyrrole-5-carboxamide]
- Inhibition of Nluc luciferase, dose and time dependence (FIGS. 4-6) (Nluc luciferase): inhibit Nluc luciferase in a dose- and time-dependent manner

Compound: CCN(C(=O)Cn1c(C(=O)NC2CCCC2)cc2sccc21)c1cccc(C)c1 [WZ-141-88, N-cyclopentyl-4-(2-(ethyl(m-tolyl)amino)-2-oxoethyl)-4H-thieno[3,2-b]pyrrole-5-carboxamide]
- IC50 (NANOLUC® enzyme): 0.54 µM
- Inhibition of Nluc luciferase, dose and time dependence (FIGS. 4-6) (Nluc luciferase): inhibit Nluc luciferase in a dose- and time-dependent manner

Compound: CCN(C(=O)Cn1c(C(=O)O)cc2sccc21)c1cccc(C)c1 [WZ-141-74, 4-(2-(ethyl(m-tolyl)amino)-2-oxoethyl)-4H-thieno[3,2-b]pyrrole-5-carboxylic acid]
- IC50 (NANOLUC® enzyme): 16.4 µM
- Inhibition of Nluc luciferase, dose and time dependence (FIGS. 4-6) (Nluc luciferase): inhibit Nluc luciferase in a dose- and time-dependent manner

Compound: CCN(C(=O)Cn1c(C(=O)NCCCN2CCOCC2)cc2sccc21)c1cccc(C)c1 [WZ-141-90, 4-(2-(ethyl(m-tolyl)amino)-2-oxoethyl)-N-(3-morpholinopropyl)-4H-thieno[3,2-b]pyrrole-5-carboxamide]
- Inhibition of Nluc luciferase, dose and time dependence (FIGS. 4-6) (Nluc luciferase): inhibit Nluc luciferase in a dose- and time-dependent manner

Compound: COC(=O)c1cc2sccc2n1CC(=O)N(Cc1ccccc1)c1cccc(C)c1 [WZ-141-86, methyl 4-(2-(benzyl(m-tolyl)amino)-2-oxoethyl)-4H-thieno[3,2-b]pyrrole-5-carboxylate]
- Inhibition of Nluc luciferase, dose and time dependence (FIGS. 4-6) (Nluc luciferase): inhibit Nluc luciferase in a dose- and time-dependent manner

Compound: CCN(C(=O)Cn1c(C(=O)N[C@H]2CC[C@H](C(=O)NCCCCCCNC(=O)[C@H](CC(=O)O)NC(=O)[C@H](CC(=O)O)NC(=O)[C@H](CC(=O)O)NC(C)=O)CC2)cc2sccc21)c1cccc(C)c1 [JRW-0251, (11S,14S,17S)-17-acetamido-11,14-bis(carboxymethyl)-1-(trans-4-(4-(2-(ethyl(m-tolyl)amino)-2-oxoethyl)-4H-thieno[3,2-b]pyrrole-5-carboxamido)cyclohexyl)-1,10,13,16-tetraoxo-2,9,12,15-tetraazanonadecan-19-oic acid]
- IC50 (NANOLUC® enzyme): 0.077 µM
- Nluc, Avg (luminescence) (Nluc; [cmpd] 0.1953125 μM): 108634
- Nluc, S/B (Nluc; [cmpd] 0.1953125 μM): 0.95
- Nluc, Avg (luminescence) (Nluc; [cmpd] 0.390625 μM): 106075
- Nluc, S/B (Nluc; [cmpd] 0.390625 μM): 0.93
- Nluc, Avg (luminescence) (Nluc; [cmpd] 0.78125 μM): 105881
- Nluc, S/B (Nluc; [cmpd] 0.78125 μM): 0.92
- Nluc, Avg (luminescence) (Nluc; [cmpd] 1.5625 μM): 96602
- Nluc, S/B (Nluc; [cmpd] 1.5625 μM): 0.84
- Nluc, Avg (luminescence) (Nluc; [cmpd] 3.125 μM): 86555
- Nluc, S/B (Nluc; [cmpd] 3.125 μM): 0.76
- Nluc, Avg (luminescence) (Nluc; [cmpd] 6.25 μM): 81193
- Nluc, S/B (Nluc; [cmpd] 6.25 μM): 0.71
- Nluc, Avg (luminescence) (Nluc; [cmpd] 12.5 μM): 68664
- Nluc, S/B (Nluc; [cmpd] 12.5 μM): 0.60
- Nluc, Avg (luminescence) (Nluc; [cmpd] 25 μM): 55210
- Nluc, S/B (Nluc; [cmpd] 25 μM): 0.48
- Nluc, Avg (luminescence) (Nluc; [cmpd] 50 μM): 44219
- Nluc, S/B (Nluc; [cmpd] 50 μM): 0.39
- Nluc, Avg (luminescence) (Nluc; [cmpd] 100 μM): 34389
- Nluc, S/B (Nluc; [cmpd] 100 μM): 0.30
- Nluc, Avg (luminescence) (Nluc; [cmpd] 200 μM): 23311
- Nluc, S/B (Nluc; [cmpd] 200 μM): 0.20
- Inhibition of firefly luciferase activity (Table 3) (UltraGlo luciferase): did not inhibit the firefly luciferase activity
- UltraGlo luciferase, Avg (luminescence) (UltraGlo luciferase; [cmpd] 0.1953125 μM): 83059
- UltraGlo luciferase, S/B (UltraGlo luciferase; [cmpd] 0.1953125 μM): 0.98
- UltraGlo luciferase, Avg (luminescence) (UltraGlo luciferase; [cmpd] 0.390625 μM): 82723
- UltraGlo luciferase, S/B (UltraGlo luciferase; [cmpd] 0.390625 μM): 0.98
- UltraGlo luciferase, Avg (luminescence) (UltraGlo luciferase; [cmpd] 0.78125 μM): 82812
- UltraGlo luciferase, S/B (UltraGlo luciferase; [cmpd] 0.78125 μM): 0.98
- UltraGlo luciferase, Avg (luminescence) (UltraGlo luciferase; [cmpd] 1.5625 μM): 82370
- UltraGlo luciferase, S/B (UltraGlo luciferase; [cmpd] 1.5625 μM): 0.98
- UltraGlo luciferase, Avg (luminescence) (UltraGlo luciferase; [cmpd] 3.125 μM): 81125
- UltraGlo luciferase, S/B (UltraGlo luciferase; [cmpd] 3.125 μM): 0.96
- UltraGlo luciferase, Avg (luminescence) (UltraGlo luciferase; [cmpd] 6.25 μM): 83665
- UltraGlo luciferase, S/B (UltraGlo luciferase; [cmpd] 6.25 μM): 0.99
- UltraGlo luciferase, Avg (luminescence) (UltraGlo luciferase; [cmpd] 12.5 μM): 83569
- UltraGlo luciferase, S/B (UltraGlo luciferase; [cmpd] 12.5 μM): 0.99
- UltraGlo luciferase, Avg (luminescence) (UltraGlo luciferase; [cmpd] 25 μM): 83382
- UltraGlo luciferase, S/B (UltraGlo luciferase; [cmpd] 25 μM): 0.99
- UltraGlo luciferase, Avg (luminescence) (UltraGlo luciferase; [cmpd] 50 μM): 81930
- UltraGlo luciferase, S/B (UltraGlo luciferase; [cmpd] 50 μM): 0.97
- UltraGlo luciferase, Avg (luminescence) (UltraGlo luciferase; [cmpd] 100 μM): 79556
- UltraGlo luciferase, S/B (UltraGlo luciferase; [cmpd] 100 μM): 0.94
- UltraGlo luciferase, Avg (luminescence) (UltraGlo luciferase; [cmpd] 200 μM): 77788
- UltraGlo luciferase, S/B (UltraGlo luciferase; [cmpd] 200 μM): 0.92

Compound: CCN(C(=O)Cn1c(C(=O)N2CCN(C)CC2)cc2sccc21)c1cccc(C)c1 [WZ-141-91, N-ethyl-2-(5-(4-methylpiperazine-1-carbonyl)-4H-thieno[3,2-b]pyrrol-4-yl)-N-(m-tolyl)acetamide]
- Inhibition of Nluc luciferase, dose and time dependence (FIGS. 4-6) (Nluc luciferase): inhibit Nluc luciferase in a dose- and time-dependent manner

Compound: CCN(C(=O)Cn1c(C(=O)N2CCCCC2)cc2sccc21)c1cccc(C)c1 [JRW-0009, N-ethyl-2-(5-(piperidine-1-carbonyl)-4H-thieno[3,2-b]pyrrol-4-yl)-N-(m-tolyl)acetamide]
- IC50 (NANOLUC® enzyme): 2.7 µM

Compound: COCCOCCN(C(=O)Cn1c(C(=O)NC2CCCCC2)cc2sccc21)c1cccc(C)c1 [JRW-0109, N-cyclohexyl-4-(2-((2-(2-methoxyethoxy)ethyl)(m-tolyl)amino)-2-oxoethyl)-4H-thieno[3,2-b]pyrrole-5-carboxamide]
- IC50 (NANOLUC® enzyme): 10.1 µM

Compound: CCN(C(=O)Cn1c(C(=O)N[C@H]2CC[C@H](C(=O)OC)CC2)cc2occc21)c1cccc(C)c1 [JRW-360, Methyl trans-4-(4-(2-(ethyl(m-tolyl)amino)-2-oxoethyl)-4H-furo[3,2-b]pyrrole-5-carboxamido)cyclohexane-1-carboxylate]
- IC50 (NANOLUC® enzyme): 0.61 µM

Compound: N-(trans-4-((6-(3′,6′-dihydroxy-3-oxo-3H-spiro[isobenzofuran-1,9′-xanthene]-5(6)-carboxamido)hexyl)carbamoyl)cyclohexyl)-4-(2-(ethyl(m-tolyl)amino)-2-oxoethyl)-4H-thieno[3,2-b]pyrrole-5-carboxamide [JRW-0200]
- pIC50 (NANOLUC® enzyme; read-out: IC50): 7.11

Compound: COC(=O)[C@H]1CC[C@H](NC(=O)c2cc3sccc3n2CC(=O)N2CCCc3cc(C)ccc32)CC1 [JRW-0331, Methyl trans-4-(4-(2-(6-methyl-3,4-dihydroquinolin-1(2H)-yl)-2-oxoethyl)-4H-thieno[3,2-b]pyrrole-5-carboxamido)cyclohexane-1-carboxylate]
- IC50 (NANOLUC® enzyme): 16.9 µM

Compound: CCCCCCN(C(=O)Cn1c(C(=O)N[C@H]2CC[C@H](C(=O)OC)CC2)cc2sccc21)c1cccc(C)c1 [JRW-0149, methyl-trans-4-(4-(2-(hexyl(m-tolyl)amino)-2-oxoethyl)-4H-thieno[3,2-b]pyrrole-5-carboxamido)cyclohexane-1-carboxylate]
- IC50 (NANOLUC® enzyme): 2.5 µM

Compound: CCN(C(=O)Cn1c(C(=O)N[C@H]2CC[C@H](C(=O)OC)CC2)cc2sccc21)c1ccccc1 [JRW-0318, Methyl trans-4-(4-(2-(ethyl(phenyl)amino)-2-oxoethyl)-4H-thieno[3,2-b]pyrrole-5-carboxamido)cyclohexane-1-carboxylate]
- IC50 (NANOLUC® enzyme): 0.11 µM

Compound: CCN(C(=O)Cn1c(C(=O)N[C@H]2CC[C@H](C(=O)OC)CC2)cc2ccc(OC)cc21)c1cccc(C)c1 [JRW-0359, Methyl trans-4-(1-(2-(ethyl(m-tolyl)amino)-2-oxoethyl)-6-methoxy-1H-indole-2-carboxamido)cyclohexane-1-carboxylate]
- IC50 (NANOLUC® enzyme): 3 µM

Compound: CCc1cccc(N(CC)C(=O)Cn2c(C(=O)N[C@H]3CC[C@H](C(=O)OC)CC3)cc3ccccc32)c1 [JRW-0424, Methyl trans-4-(1-(2-(ethyl(3-ethylphenyl)amino)-2-oxoethyl)-1H-indole-2-carboxamido)cyclohexane-1-carboxylate]
- IC50 (NANOLUC® enzyme): 0.005 µM
